Earlier results, collected in patent US20230346652A1, “Foaming Hand Sanitizer with High Alcohol Content” (Ele' Corporation, priority 2021, published 2023).

Tests used:
[1] = tested on: certain non-enveloped viruses

Question: For CCO [ethanol], which “ethanol concentration necessary to kill within 30 seconds” value [1] is on record?
Answer: The value was “up to 95%”.

Question: And the “ethanol concentration effective within 30 seconds” value (enveloped viruses)?
Answer: Its value is “less than 75 % (by weight)”.
